Test results from US12616713B2, “Methods for enhancing vascular density” (priority 2016, dated 2026).

Experiments:
C57BL/6J mice [1] = assay: Optoacoustic imaging of hindlimb soluble oxygen (sO2); type: in vivo, mouse; conditions: 20-month old mice, photoacoustic tomography
Protocol: Optoacoustic imaging. An MSOT inVision 256-TF small animal imaging system (iThera Medical GmbH, Munich, Germany) was used (Morscher et al., 2014, Photoacoustics 2, 103-110). Mice were anesthetized with isoflurane (1.5-2%, 500 ml O2/min), and body portion below chest area was shaved using depilatory cream. The animals were then placed horizontally in the imaging chamber and three-dimensional scanning of the lower portion was performed as per manufacture's protocol. Briefly, a tunable optical parametric oscillator (OPO) pumped by an Nd:YAG laser provided excitation pulses with a duration of 9 ns at wavelengths from 680 nm to 980 nm at a repetition rate of 10 Hz with a wavelength tuning speed of 10 ms and a peak pulse energy of 100 mJ at 730 nm. Ten arms of a fiber bundle provided even illumination of a ring-shaped light strip of approx. 8 mm width. For ultrasound detection, 256 toroidally focused ultrasound transducers with a center frequency of 5 MHz (60% bandwidth), organized in a concave array of 270° angular coverage and a radius of curvature of 4 cm, were used.

[2] = test system: MLECs isolated from WT and ESKO mice; assay: Transwell migration assay, MLECs; type: cell-based, mouse; conditions: WT versus ESKO MLECs, C2C12 CM, NMN 0.5 mM
C57BL/6J mice [3] = assay: Muscle capillaries in mice with lentiviral EC-specific SIRT1 knockdown; type: in vivo, mouse; conditions: 20-month old mice, SIRT1 miRNA #5 lentivirus, NMN 400, NaHS 20, GYY4137 20 mg/kg/day, four weeks
Protocol: Lentiviral particles were concentrated by ultracentrifugation (cite) and viral titer was determined by (cite kit) and injected at 1×10^10 TU/mouse carrying SIRT1 or NT miRNAs to 20-mo old WT C57BL/6J mice (NIA) via retro-orbital injection. Mice received two consecutive injections behind alternate eyes two days apart. 10 days post final injection, mice were assigned to different treatment groups.
Freshly isolated whole quadriceps and gastrocnemius muscle samples were mounted in OCT compound (Tissue-Tek), placed in an isopentane bath and slowly cooled in liquid nitrogen. Transverse sections at 20 μm-thickness were sectioned on a cryostat (Leica). The sections were fixed in pre-cooled acetone (−20° C.) for 10 min and washed with PBS. Slides were then blocked in normal goat serum and 5% Blocking Reagent (PerkinElmer) in PBST (PBS with 0.1% Triton-X) for 1 h at room temperature, and then incubated with anti-CD31 (ab56299, Abcam) and anti-Laminin (L9393, Sigma), GFP (ab6556, Abcam) or SIRT1 (HPA006295, Sigma) antibodies diluted in blocking buffer overnight at 4° C. […] Images were acquired using a confocal fluorescence microscope (Nikon A1). Quantification of capillaries and capillary density were performed using ImageJ software. […]

C57BL/6J mice [4] = assay: Treadmill exercise training with or without NMN, muscle capillaries; type: in vivo, mouse
Protocol: Mice were acclimatized to the treadmill system for 3 days prior to the start of exercise training by running at 10 m/min for 20 min. The animals that were successfully acclimatized were then subjected to running at 15-20 m/min at 5° inclination for 30 minutes once daily for one month. Freshly isolated whole quadriceps and gastrocnemius muscle samples were mounted in OCT compound (Tissue-Tek), placed in an isopentane bath and slowly cooled in liquid nitrogen. Transverse sections at 20 μm-thickness were sectioned on a cryostat (Leica). The sections were fixed in pre-cooled acetone (-20° C.) for 10 min and washed with PBS. […] Slides were washed with PBST and then incubated with anti-rat Alexa Fluor 488-conjugated (Life Technologies) and anti-rabbit Alexa Fluor 594-conjugated (Life Technologies) antibodies diluted to 1:500 in blocking buffer for 2 h at room temperature. Slides were washed again with PBST and mounted with Fluoroshield with DAPI mounting medium (Sigma). Images were acquired using a confocal fluorescence microscope (Nikon A1). Quantification of capillaries and capillary density were performed using ImageJ software. TUNEL staining was performed in muscle sections using in situ BrdU-Red DNA fragmentation (TUNEL) assay kit (Abcam) as per manufacturer's protocol.

SIRT1-iKO and WT mice = assay: Hindlimb ischemia model; type: in vivo, mouse; conditions: 8-month old mice, femoral ligation, NMN 20 days; SIRT1-dependent
Protocol: The effect of NMN in ischemia-induced vessel formation was assessed in a murine model of hindlimb ischemia using SIRT1-iKO and WT mice according to the published protocol (Limbourg et al., 2009, Nat Protoc 4, 1737-1746). Treatment of animals with NMN (500 mg/kg/day) via drinking water started one week prior to femoral ligation and was continued until the end of the experiment. The blood flow in the ischemic limb was measured using contrast-enhanced ultrasound imaging, 20 days after the surgery.
Mice were anesthetized with isoflurane (1.5-2%, 500 ml 02/min), hindlimbs were shaved using depilatory cream and a 27-gauge catheter was placed into each mouse's tail and kept in place with surgical tape. […] A cine loop was recorded at a frame rate of 20 frames/s for a total of 1,000 frames. […] The difference in maximum and minimum video intensity was determined as the peak enhancement and was the variable used to determine muscle perfusion.
Freshly isolated whole quadriceps and gastrocnemius muscle samples were mounted in OCT compound (Tissue-Tek), placed in an isopentane bath and slowly cooled in liquid nitrogen. […] Images were acquired using a confocal fluorescence microscope (Nikon A1). Quantification of capillaries and capillary density were performed using ImageJ software. […]

For NC(=O)c1ccc[n+]([C@@H]2O[C@H](COP(=O)([O-])O)[C@@H](O)[C@H]2O)c1 [NMN, nicotinamide mononucleotide], the “soluble oxygen (sO2) levels in resting muscle, greater than vehicle-treated controls” value (C57BL/6J mice [1]) was 15%, the “ability of NMN to stimulate cell migration, dependence on SIRT1” value [2] was “SIRT1-dependent” and the “ability to increase vascularization in SIRT1 knockdown mice” value (C57BL/6J mice [3]) was “blocked in the SIRT1 knockdown mice”. For the same compound, the “more capillaries in gastrocnemii than sedentary mice” value (C57BL/6J mice [4]; exercised and NMN-treated mice) was 70%, the “increase in vascular density and exercise capacity in conjunction with exercise versus without exercise” value (C57BL/6J mice [4]; mice (summary statement)) was “greater” and the “capillary density or exercise capacity” value (C57BL/6J mice [4]; young mice kept sedentary, NMN 400 mg/kg/day) was “did not increase”. The “increase in capillary density” value (C57BL/6J mice [4]; young mice, one month endurance training plus NMN 400 mg/kg/day, versus sedentary) was 3.2 fold, the “capillary density of ischemic gastrocnemius” value (SIRT1-iKO and WT mice) was “restored” and the “relative blood volume (peak enhancement) of ischemic limb” value (SIRT1-iKO and WT mice) was “restored”.
